Measurements: patent publication US4400510A, “A-32256 Phenazine antibiotic” (Eli Lilly and Company, priority 1981, dated 1983)
Converted amounts (≈) assume the structure as drawn. “Also recorded” adds a separate entry of the source. Where two headings read alike, the source gives them in different places.

Legend:
Erwinia amylovora = experiment: agar-dilution screening procedure, MIC; type: cell-based
Procedure: (§1) The agar-dilution procedure described by the International Collaborative Study (ICS) group was used to determine MIC values.
(§2) The results obtained from tests of antibiotic A-32256 in the agar-dilution screening procedure are recorded in Table 5, which follows.

Staphylococcus aureus [1] = experiment: agar-dilution screening procedure, MIC; type: cell-based
Procedure: as §1, §2

Streptococcus faecalis = experiment: agar-dilution screening procedure, MIC; type: cell-based; conditions: Enterococcus faecalis, S. faecalis X66
Procedure: as §1, §2

Actinomyces israellii = experiment: agar-dilution MIC vs. anaerobic bacteria; type: cell-based; conditions: strain W855; Table 6
Procedure: as §1
(§3) The MIC was determined by the agar-dilution method.

[2] = system: Bacteroides thetaiotaomicron; experiment: agar-dilution MIC vs. anaerobic bacteria; type: cell-based
Procedure: as §1, §3

Clostridium septicum = experiment: agar-dilution MIC vs. anaerobic bacteria; type: cell-based; conditions: strain 1128, Table 6
Procedure: as §1, §3

Peptococcus prevoti [3] = experiment: agar-dilution MIC vs. anaerobic bacteria; type: cell-based
Procedure: as §1, §3

Eubacterium aerofaciens = experiment: agar-dilution MIC vs. anaerobic bacteria; type: cell-based; conditions: strain 1235; Table 6
[4] = system: Peptococcus asaccharolyticus; experiment: agar-dilution MIC vs. anaerobic bacteria; type: cell-based; conditions: strain 1302; Table 6
[5] = system: Peptostreptococcus anaerobius; experiment: agar-dilution MIC vs. anaerobic bacteria; type: cell-based; conditions: strain 1428, Table 6
[6] = system: Peptostreptococcus intermedius; experiment: agar-dilution MIC vs. anaerobic bacteria; type: cell-based; conditions: strain 1264, Table 6
Propionibacterium acnes = experiment: agar-dilution MIC vs. anaerobic bacteria; type: cell-based; conditions: strain 79; Table 6
Bacteroides fragilis [7] = experiment: agar-dilution MIC vs. anaerobic bacteria; type: cell-based; conditions: Table 6
[8] = system: Bacteroides melanogenicus; experiment: agar-dilution MIC vs. anaerobic bacteria; type: cell-based; conditions: Table 6
Bacteroides corrodens = experiment: agar-dilution MIC vs. anaerobic bacteria; type: cell-based; conditions: Eikenella corrodens; strain 1874; Table 6
Fusobacterium symbiosum = experiment: agar-dilution MIC vs. anaerobic bacteria; type: cell-based; conditions: strain 1470; Table 6
[9] = system: Fusobacterium necrophorum; experiment: agar-dilution MIC vs. anaerobic bacteria; type: cell-based; conditions: Fusobacterium necrophorum; strain 6054A; Table 6; read-out: MIC
B. corrodens = experiment: agar-dilution MIC vs. Bacteroides species; type: cell-based; conditions: B. corrodens 1874; 24 hours; Table 8
Procedure: as §1
(§4) The MIC values were determined by the agar-dilution method, the endpoints being read 24 hours after incubation, and are recorded in Table 8, which follows.

B. thetaiotaomicron = experiment: agar-dilution MIC vs. Bacteroides species; type: cell-based; conditions: 24 hours, Table 8
Procedure: as §1, §4

B. vulgatis = experiment: agar-dilution MIC vs. Bacteroides species; type: cell-based; conditions: B. vulgatis 1563; 24 hours; Table 8
Procedure: as §1, §4

Bacteroides fragilis [10] = experiment: agar-dilution MIC vs. Bacteroides species; type: cell-based; conditions: 24 hours, Table 8
Procedure: as §1, §4

[11] = system: Peptococcus asaccharolyticus; experiment: agar-dilution MIC vs. Peptococcus and Peptostreptococcus species; type: cell-based; conditions: Table 9
Procedure: as §1
(§5) The MIC values were determined by the agar-dilution method, and are recorded in Table 9, which follows.

Peptococcus constellatus = experiment: as above; type: cell-based; conditions: Pc. constellatus 1468; Table 9
Procedure: as §1, §5

Peptococcus magnus = experiment: as above; type: cell-based; conditions: Table 9
Procedure: as §1, §5

Peptococcus prevoti [12] = experiment: as above; type: cell-based; conditions: Table 9
Procedure: as §1, §5

[13] = system: Peptostreptococcus anaerobius; experiment: as above; type: cell-based; conditions: Table 9
Procedure: as §1, §5

[14] = system: Peptostreptococcus intermedius; experiment: as above; type: cell-based; conditions: Table 9
Procedure: as §1, §5

Trichomonas vaginalis = experiment: broth dilution assay, antitrichomonal activity; type: cell-based; conditions: in vitro
solubility = type: physicochemical
Staphylococcus aureus [15] = experiment: disc-plate screening procedure, zone of inhibition
[16] = system: Streptococcus sp. (Group D); experiment: disc-plate screening procedure, zone of inhibition; conditions: read-out: Zone Diameter

Compound: Cc1cccc(O)c1C(=O)OC(C)c1cccc2nc3c(C(=O)O)cccc3nc12 (stereo not drawn) [Antibiotic A-32256, 6-[1-[(2-hydroxy-6-methylbenzoyl)oxy]-ethyl]-1-phenazinecarboxylic acid]
- MIC (Erwinia amylovora): 4 mg/L (≈ 9.94 µM)
- MIC (Staphylococcus aureus [1]; S. aureus 3055, benzylpenicillin-susceptible): 1 mg/L (≈ 2.49 µM)
- MIC (Staphylococcus aureus [1]; S. aureus 3074, benzylpenicillin-resistant): < 0.5 mg/L
- MIC (Streptococcus faecalis): 4 mg/L (≈ 9.94 µM)
- MIC (Actinomyces israellii): 16 mg/L (≈ 39.8 µM)
- MIC [2]: ≤ 0.5 mg/L
- MIC (Clostridium septicum): ≤ 0.5 mg/L
- MIC (Peptococcus prevoti [3]): ≤ 0.5 mg/L
- MIC (Eubacterium aerofaciens): 2 mg/L (≈ 4.97 µM)
- MIC [4]: 16 mg/L (≈ 39.8 µM)
- MIC [5]: ≤ 0.5 mg/L
- MIC [6]: ≤ 0.5 mg/L
- MIC (Propionibacterium acnes): 2 mg/L (≈ 4.97 µM)
- MIC (Bacteroides fragilis [7]; Bacteroides fragilis, strain 111, read-out: MIC): 1 mg/L (≈ 2.49 µM)
- MIC (Bacteroides fragilis [7]; Bacteroides fragilis, strain 1936B, read-out: MIC): 1 mg/L (≈ 2.49 µM)
- MIC (Bacteroides fragilis [7]; strain 1877): 8 mg/L (≈ 19.9 µM)
- MIC ([8]; Bacteroides, strain 1856/28, read-out: MIC): 16 mg/L (≈ 39.8 µM)
- MIC ([8]; strain 2736): 16 mg/L (≈ 39.8 µM)
- MIC (Bacteroides corrodens): ≤ 0.5 mg/L
- MIC (Fusobacterium symbiosum): 2 mg/L (≈ 4.97 µM)
- MIC [9]: 1 mg/L (≈ 2.49 µM)
- MIC (B. corrodens): 0.25 mg/L (≈ 0.621 µM)
- MIC (B. thetaiotaomicron; B. thetaiotaomicron 1438): 1.0 mg/L (≈ 2.49 µM)
- MIC (B. thetaiotaomicron; B. thetaiotaomicron 1900A): 1.0 mg/L (≈ 2.49 µM)
- MIC (B. vulgatis): 1.0 mg/L (≈ 2.49 µM)
- MIC (Bacteroides fragilis [10]; B. fragilis 2): 1.0 mg/L (≈ 2.49 µM)
- MIC (Bacteroides fragilis [10]; B. fragilis 9): 1.0 mg/L (≈ 2.49 µM)
- MIC (Bacteroides fragilis [10]; B. fragilis 62): 1.0 mg/L (≈ 2.49 µM)
- MIC (Bacteroides fragilis [10]; B. fragilis 103): 0.5 mg/L (≈ 1.24 µM)
- MIC (Bacteroides fragilis [10]; B. fragilis 104): 1.0 mg/L (≈ 2.49 µM)
- MIC (Bacteroides fragilis [10]; B. fragilis 106): 0.5 mg/L (≈ 1.24 µM)
- MIC (Bacteroides fragilis [10]; B. fragilis 107): 2 mg/L (≈ 4.97 µM)
- MIC (Bacteroides fragilis [10]; B. fragilis 108): 1.0 mg/L (≈ 2.49 µM)
- MIC (Bacteroides fragilis [10]; B. fragilis 110): 0.5 mg/L (≈ 1.24 µM)
- MIC (Bacteroides fragilis [10]; B. fragilis 111): 1.0 mg/L (≈ 2.49 µM)
- MIC (Bacteroides fragilis [10]; B. fragilis 112): 0.5 mg/L (≈ 1.24 µM)
- MIC (Bacteroides fragilis [10]; B. fragilis 113): 1.0 mg/L (≈ 2.49 µM)
- MIC (Bacteroides fragilis [10]; B. fragilis 1470): 0.5 mg/L (≈ 1.24 µM)
- MIC (Bacteroides fragilis [10]; B. fragilis 1877): 1.0 mg/L (≈ 2.49 µM)
- MIC (Bacteroides fragilis [10]; V. fragilis 1451 (so in the source)): 2 mg/L (≈ 4.97 µM)
- MIC ([11]; Pc. asaccharolyticus 1302): 2 mg/L (≈ 4.97 µM)
- MIC ([11]; Pc. asaccharolyticus 1344): 2 mg/L (≈ 4.97 µM)
- MIC (Peptococcus constellatus): 8 mg/L (≈ 19.9 µM)
- MIC (Peptococcus magnus; Pc. magnus 1401): 2 mg/L (≈ 4.97 µM)
- MIC (Peptococcus magnus; Pc. magnus 1421): 0.5 mg/L (≈ 1.24 µM)
- MIC (Peptococcus magnus; Pc. magnus 1477): 0.5 mg/L (≈ 1.24 µM)
- MIC (Peptococcus prevoti [12]; Pc. prevoti 1281): 2 mg/L (≈ 4.97 µM)
- MIC (Peptococcus prevoti [12]; Pc. prevoti 1293): 16 mg/L (≈ 39.8 µM)
- MIC (Peptococcus prevoti [12]; Pc. prevoti 1407): 2 mg/L (≈ 4.97 µM)
- MIC ([13]; Peptostreptococcus anaerobius, Ps. anaerobius 1428, read-out: MIC): ≤ 0.125 mg/L
- MIC ([13]; Ps. anaerobius 8): 2 mg/L (≈ 4.97 µM)
- MIC ([13]; Ps. anaerobius 52): 8 mg/L (≈ 19.9 µM)
- MIC ([13]; Ps. anaerobius 59): 0.5 mg/L (≈ 1.24 µM)
- MIC ([13]; Ps. anaerobius 1418): 0.25 mg/L (≈ 0.621 µM)
- MIC ([13]; Ps. anaerobius 1451): 0.5 mg/L (≈ 1.24 µM)
- MIC ([13]; Ps. anaerobius 1477): 8 mg/L (≈ 19.9 µM)
- MIC ([14]; Ps. intermedius 1264): 2 mg/L (≈ 4.97 µM)
- MIC ([14]; Ps. intermedius 1524, read-out: MIC): ≤ 0.125 mg/L
- MIC ([14]; Ps. intermedius 1624): 8 mg/L (≈ 19.9 µM)
- antitrichomonal activity (Trichomonas vaginalis): has shown antitrichomonal activity in vitro
- solubility (solubility; acetone): moderately soluble
- solubility (solubility; alkaline aqueous solutions): soluble
- solubility (solubility; chloroform): easily soluble
- solubility (solubility; cyclohexane): sparingly soluble
- solubility (solubility; dimethyl sulfoxide): moderately soluble
- solubility (solubility; dioxane): moderately soluble
- solubility (solubility; ethanol): sparingly soluble
- solubility (solubility; ethyl acetate): moderately soluble
- solubility (solubility; hexane): sparingly soluble
- solubility (solubility; methanol): sparingly soluble
- solubility (solubility; pyridine): easily soluble
- solubility (solubility; tetrahydrofuran): easily soluble
- solubility (solubility; water): not water soluble; also recorded: insoluble
- zone of inhibition at 30 µg/disc (Staphylococcus aureus [15]; read-out: Zone Diameter, S. aureus 3055, benzylpenicillin-susceptible, 30 mcg/disc): 23 mm
- zone of inhibition at 300 µg/disc (Staphylococcus aureus [15]; read-out: Zone Diameter, S. aureus 3055, benzylpenicillin-susceptible, 300 mcg/disc): 26.2 mm
- zone of inhibition at 30 µg/disc (Staphylococcus aureus [15]; read-out: Zone Diameter, S. aureus 3074, benzylpenicillin-resistant, 30 mcg/disc): 10 mm
- zone of inhibition at 300 µg/disc (Staphylococcus aureus [15]; read-out: Zone Diameter, S. aureus 3074, benzylpenicillin-resistant, 300 mcg/disc): 12.2 mm
- zone of inhibition at 30 µg/disc (Staphylococcus aureus [15]; read-out: Zone Diameter, S. aureus 3130, methicillin-resistant, 30 mcg/disc): 25.8 mm
- zone of inhibition at 300 µg/disc (Staphylococcus aureus [15]; read-out: Zone Diameter, S. aureus 3130, methicillin-resistant, 300 mcg/disc): 30 mm
- zone of inhibition at 30 µg/disc [16]: 18.2 mm
- zone of inhibition at 300 µg/disc [16]: 21 mm
